According to patent publication US8158668B2, “Methods for treating CNS disorders with 4-imidazole derivatives” (Hoffmann-La Roche Inc., priority 2006, dated 2012):
Read-outs that look alike come from different tables or passages of the source.

Target: T1, mouseTAAR1 (Mus musculus, UniProt Q923Y8)
T1 construct: expressed in transfected cells; host or cells: HEK293 (ATCC #CRL-1573), stably transfected with pIRESneo2 expression plasmid; membrane preparation
Experiment: Radioligand binding on membranes of HEK293 cells stably expressing TAAR1
Protocol: For the construction of expression plasmids the coding sequences of human, rat and mouse TAAR 1 were amplified from genomic DNA essentially as described by Lindemann et al.. The Expand High Fidelity PCR System (Roche Diagnostics) was used with 1.5 mM Mg^2+ and purified PCR products were cloned into pCR2.1-TOPO cloning vector (Invitrogen) following the instructions of the manufacturer. PCR products were subcloned into the pIRESneo2 vector (BD Clontech, Palo Alto, Calif.), and expression vectors were sequence verified before introduction in cell lines.
For the generation of stably transfected cell lines HEK293 cells were transfected with the pIRESneo2 expression plasmids containing the TAAR coding sequences (described above) with Lipofectamine 2000 (Invitrogen) according to the instructions of the manufacturer, and 24 hrs post transfection the culture medium was supplemented with 1 mg/ml G418 (Sigma, Buchs, Switzerland). After a culture period of about 10 d clones were isolated, expanded and tested for responsiveness to trace amines (all compounds purchased from Sigma) with the cAMP Biotrak Enzyme immunoassay (EIA) System (Amersham) following the non-acetylation EIA procedure provided by the manufacturer.
Cells at confluence were rinsed with ice-cold phosphate buffered saline without Ca^2+ and Mg^2+ containing 10 mM EDTA and pelleted by centrifugation at 1000 rpm for 5 min at 4° C. The pellet was then washed twice with ice-cold phosphate buffered saline and cell pellet was frozen immediately by immersion in liquid nitrogen and stored until use at −80° C. Cell pellet was then suspended in 20 ml HEPES-NaOH (20 mM), pH 7.4 containing 10 mM EDTA, and homogenized with a Polytron (PT 3000, Kinematica) at 10,000 rpm for 10 s. The homogenate was centrifuged at 48,000×g for 30 min at 4° C. and the pellet resuspended in 20 ml HEPES-NaOH (20 mM), pH 7.4 containing 0.1 mM EDTA (buffer A), and homogenized with a Polytron at 10,000 rpm for 10 s. The homogenate was then centrifuged at 48,000×g for 30 min at 4° C. and the pellet resuspended in 20 ml buffer A, and homogenized with a Polytron at 10,000 rpm for 10 s. Protein concentration was determined by the method of Pierce (Rockford, Ill.). The homogenate was then centrifuged at 48,000×g for 10 min at 4° C., resuspended in HEPES-NaOH (20 mM), pH 7.0 including MgCl2 (10 mM) and […] homogenized with a Polytron at 10,000 rpm for 10 s.
Binding assay was performed at 4° C. in a final volume of 1 ml, and with an incubation time of 30 min. […] Competing ligands were tested in a wide range of concentrations (10 pM-30 μM). […] Each experiment was performed in duplicate. All incubations were terminated by rapid filtration through UniFilter-96 plates (Packard Instrument Company) and glass filter GF/C, pre-soaked for at least 2 h in polyethylenimine 0.3%, and using a Filtermate 96 Cell Harvester (Packard Instrument Company). The tubes and filters were then washed 3 times with 1 ml aliquots of cold buffer B. Filters were not dried and soaked in Ultima gold (45 μl/well, Packard Instrument Company) and bound radioactivity was counted by a TopCount Microplate Scintillation Counter (Packard Instrument Company).

[1] = mouseTAAR1, competition with [3H]-rac-2-(1,2,3,4-tetrahydro-1-naphthyl)-2-imidazoline, 4° C., 30 min, read-out: Ki

T1 sequence (Q923Y8 whole entry): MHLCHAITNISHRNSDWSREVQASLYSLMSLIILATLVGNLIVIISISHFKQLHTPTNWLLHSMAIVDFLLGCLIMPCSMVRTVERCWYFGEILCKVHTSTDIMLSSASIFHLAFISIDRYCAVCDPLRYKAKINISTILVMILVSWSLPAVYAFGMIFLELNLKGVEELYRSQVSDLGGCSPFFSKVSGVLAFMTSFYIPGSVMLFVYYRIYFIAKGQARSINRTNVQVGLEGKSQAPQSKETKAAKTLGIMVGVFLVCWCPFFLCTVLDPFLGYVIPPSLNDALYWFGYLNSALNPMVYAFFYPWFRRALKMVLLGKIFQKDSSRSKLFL

**Q.** With CCc1cc(Oc2ccccc2)cc(CC)c1Cc1cnc[nH]1 [Example 79, 4-(2,6-Diethyl-4-phenoxy-benzyl)-1H-imidazole] as the compound, how does the Ki read?
**A.** 5.6 nM

**Q.** For Fc1cccc(Cl)c1Cc1cnc[nH]1 [Example 12, 4-(2-Chloro-6-fluoro-benzyl)-1H-imidazole], which Ki is on record?
**A.** 19 nM

**Q.** For CCc1cccc(F)c1Cc1cnc[nH]1 [Example 78, 4-(2-Ethyl-6-fluoro-benzyl)-1H-imidazole], which Ki is on record?
**A.** 17.9 nM

**Q.** With c1ccc(-c2cccc(Cc3cnc[nH]3)c2)cc1 [Example 71, 4-Biphenyl-3-ylmethyl-1H-imidazole] as the compound, how does the Ki read?
**A.** 39.1 nM

**Q.** For Clc1ccc(Oc2cccc(Cc3cnc[nH]3)c2)cc1 [Example 60, 4-[3-(4-Chloro-phenoxy)-benzyl]-1H-imidazole], which Ki is on record?
**A.** 27.6 nM

**Q.** Which Ki does the source give for c1cc2c(c(Cc3cnc[nH]3)c1)OCC2 [Example 50, 4-(2,3-Dihydro-benzofuran-7-ylmethyl)-1-imidazole] here?
**A.** 20.2 nM

**Q.** For CC(c1ccccc1)c1cnc[nH]1 (racemic) [Example 14, rac-4-(1-Phenyl-ethyl)-1H-imidazole], which Ki is on record?
**A.** 4 nM

**Q.** With CCOc1cc(CC)c(Cc2cnc[nH]2)c(CC)c1 [Example 72, 4-(4-Ethoxy-2,6-diethyl-benzyl)-1H-imidazole] as the compound, how does the Ki read?
**A.** 12.7 nM

**Q.** CC(c1cccc(F)c1)c1cnc[nH]1 (racemic) [Example 15, rac-4-[1-(3-Fluoro-phenyl)-ethyl]-1H-imidazole] was tested. Which Ki did it give?
**A.** 19 nM

**Q.** Which Ki does the source give for CC(c1c[nH]cn1)c1cccc2ccccc12 (racemic) [Example 40, rac-4-(1-Naphthalen-1-yl-ethyl)-1H-imidazole] here?
**A.** 3 nM

**Q.** CCC(c1cnc[nH]1)c1ccccc1F (racemic) [Example 6, rac-4-[1-(2-Fluoro-phenyl)-propyl]-1H-imidazole] was tested. Which Ki did it give?
**A.** 22 nM

**Q.** For CCCC(c1ccccc1)c1c[nH]cn1 (racemic) [Example 1, rac-4-(1-Phenyl-butyl)-1H-imidazole], which Ki is on record?
**A.** 49 nM

**Q.** With Cc1cccc(Cc2c[nH]cn2)c1C [Example 25, 4-(2,3-Dimethyl-benzyl)-1H-imidazole, reference compound] as the compound, how does the Ki [1] read?
**A.** 43 nM

**Q.** Which Ki does the source give for CCOc1ccc(CC)c(Cc2cnc[nH]2)c1CC [Example 74, 4-(3-Ethoxy-2,6-diethyl-benzyl)-1H-imidazole] here?
**A.** 3.7 nM

**Q.** CCc1cc(OC)cc(CC)c1Cc1cnc[nH]1 [Example 69, 4-(2,6-Diethyl-4-methoxy-benzyl)-1H-imidazole] was tested. Which Ki did it give?
**A.** 2.6 nM

**Q.** With Cc1cc(C)c(C)c(Cc2cnc[nH]2)c1C [Example 31, 4-(2,3,5,6-Tetramethyl-benzyl)-1H-imidazole] as the compound, how does the Ki read?
**A.** 16 nM

**Q.** With CC(C)(c1ccccc1)c1cnc[nH]1 [Example 41, 5-(1-methyl-1-phenyl-ethyl)-1H-imidazole trifluoro-acetate] as the compound, how does the Ki read?
**A.** 46.1 nM

**Q.** CCc1cccc(Cl)c1Cc1cnc[nH]1 [Example 61, 4-(2-Chloro-6-ethyl-benzyl)-1H-imidazole] was tested. Which Ki did it give?
**A.** 11.5 nM

**Q.** Which Ki does the source give for c1ccc(-c2ccccc2Cc2cnc[nH]2)cc1 [Example 67, 4-Biphenyl-2-ylmethyl-1H-imidazole] here?
**A.** 27.6 nM

**Q.** With CCc1cc(OCc2ccccc2)cc(CC)c1Cc1cnc[nH]1 [Example 73, 4-(4-Benzyloxy-2,6-diethyl-benzyl)-1H-imidazole] as the compound, how does the Ki [1] read?
**A.** 11.7 nM

**Q.** With Cc1ccc2ccccc2c1Cc1cnc[nH]1 [Example 572, 4-(2-Methyl-naphthalen-1-ylmethyl)-1H-imidazole] as the compound, how does the Ki read?
**A.** 5.6 nM

**Q.** CCc1ccc(Oc2ccccc2)c(CC)c1Cc1cnc[nH]1 [Example 80, 4-(2,6-Diethyl-3-phenoxy-benzyl)-1H-imidazole] was tested. Which Ki did it give?
**A.** 13.9 nM

**Q.** Clc1cccc(Cl)c1Cc1cnc[nH]1 [Example 33, 4-(2,6-Dichloro-benzyl)-1H-imidazole] was tested. Which Ki did it give?
**A.** 3 nM

**Q.** How did the Ki turn out when CC(c1cnc[nH]1)c1ccccc1F (racemic) [Example 2, rac-4-[1-(2-Fluoro-phenyl)-ethyl]-1H-imidazole] was run?
**A.** 12 nM

**Q.** With CCc1ccc(OC)c(CC)c1Cc1cnc[nH]1 [Example 70, 4-(2,6-Diethyl-3-methoxy-benzyl)-1H-imidazole] as the compound, how does the Ki read?
**A.** 3.8 nM

**Q.** How did the Ki turn out when C[C@@H](c1cnc[nH]1)c1cccc(F)c1F [Example 46, 4-[(R)-1-(2,3-Difluoro-phenyl)-ethyl]-1H-imidazole] was run?
**A.** 7.8 nM

**Q.** With Cc1cccc(C)c1Cc1cnc[nH]1 [Example 29, 4-(2,6-Dimethyl-benzyl)-1H-imidazole] as the compound, how does the Ki read?
**A.** 4 nM

**Q.** With CCC(c1cc(F)cc(F)c1)c1cnc[nH]1 (racemic) [Example 4, rac-4-[1-(3,5-Difluoro-phenyl)-propyl]-1H-imidazole] as the compound, how does the Ki read?
**A.** 28 nM

**Q.** Which Ki does the source give for CCC(c1ccccc1)c1cnc[nH]1 (racemic) [Example 5, rac-4-(1-Phenyl-propyl)-1H-imidazole] here?
**A.** 36 nM

**Q.** With CCc1cccc(C2CC2)c1Cc1cnc[nH]1 [Example 58, 4-(2-Cyclopropyl-6-ethyl-benzyl)-1H-imidazole] as the compound, how does the Ki read?
**A.** 9.8 nM

**Q.** With CCc1cccc(CC)c1Cc1cnc[nH]1 [Example 26, 4-(2,6-Diethyl-benzyl)-1H-imidazole] as the compound, how does the Ki read?
**A.** 10 nM

**Q.** How did the Ki turn out when CCC(c1cccc(F)c1)c1cnc[nH]1 (racemic) [Example 7, rac-4-[1-(3-Fluoro-phenyl)-propyl]-1H-imidazole] was run?
**A.** 32 nM

**Q.** CCc1cccc(C)c1Cc1cnc[nH]1 [Example 57, 4-(2-Ethyl-6-methyl-benzyl)-1H-imidazole] was tested. Which Ki did it give?
**A.** 10.8 nM

**Q.** For CCC(c1cnc[nH]1)c1cccc(F)c1F (racemic) [Example 20, rac-4-[1-(2,3-Difluoro-phenyl)-propyl]-1H-imidazole], which Ki is on record?
**A.** 18 nM

**Q.** With Brc1ccccc1Cc1cnc[nH]1 [Example 27, 4-(2-Bromo-benzyl)-1H-imidazole] as the compound, how does the Ki read?
**A.** 34 nM

**Q.** Which Ki does the source give for c1cc(Cc2cnc[nH]2)c2occc2c1 [Example 51, 4-Benzofuran-7-ylmethyl-1-imidazole] here?
**A.** 9.3 nM

**Q.** With CC(c1cnc[nH]1)c1cccc(F)c1F (racemic) [Example 17, rac-4-[1-(2,3-Difluoro-phenyl)-ethyl]-1H-imidazole] as the compound, how does the Ki read?
**A.** 11 nM

**Q.** c1ccc2cc(Cc3c[nH]cn3)ccc2c1 [Example 39, 4-Naphthalen-2-ylmethyl-1H-imidazole] was tested. Which Ki did it give?
**A.** 29 nM

**Q.** How did the Ki turn out when Brc1cc(Cc2c[nH]cn2)c2occc2c1 [Example 49, 4-(5-Bromo-benzofuran-7-ylmethyl)-1-imidazole] was run?
**A.** 0.9 nM
